Experimental data published in ChEMBL document CHEMBL5143734, “Seco-Lupane Triterpene Derivatives Induce Ferroptosis through GPX4/ACSL4 Axis and Target Cyclin D1 to Block the Cell Cycle” (J Med Chem, 2022).
Active and inactive are the calls of the source. The calls are words filed in the database; no cut-off is given here.

Experiments:
[1] = test system: HepG2; experiment: Induction of ferroptosis in human HepG2 cells assessed as increase in ACSL4 mRNA expression measured after 6 to 36 hrs by qRT-PCR analysis; type: functional, cell-based; conditions: dose 0.25-1 µM, time 6-36 hrs, DDE = dose-dependent effect
[2] = test system: HepG2; experiment: Induction of ferroptosis in human HepG2 cells assessed as increase in intracellular ROS level incubated for 48 hrs by DCFH-DA staining based fluorescence microscopic analysis; type: functional, cell-based; conditions: dose 0.25-1 µM, DDE = dose-dependent effect
[3] = test system: HepG2; experiment: Antiinvasive activity in human HepG2 cells assessed as inhibition of cell invasion measured after 24 hrs by crystal violet staining based transwell assay; type: functional; conditions: dose 0.125-0.5 µM, DDE = dose-dependent effect
[4] = test system: MCF7; experiment: Cytotoxicity against human MCF7 cells assessed as reduction in cell viability by CCK-8 assay; type: functional, cell-based
[5] = test system: HepG2; experiment: Induction of ferroptosis in human HepG2 cells assessed as log2 fold decrease in GPX4 mRNA expression by qRT-PCR analysis; type: functional
[6] = test system: HepG2; experiment: Downregulation of Cyclin A2 mRNA expression in human HepG2 cells assessed as fragments per kilo base of exon per million mapped fragments by RT-qPCR analysis (reference value: 37.48 to 47.03); type: functional
[7] = test system: A549; experiment: Cytotoxicity against human A549 cells assessed as reduction in cell viability by CCK-8 assay; type: functional, cell-based
[8] = test system: HepG2; experiment: Antiproliferative activity against human HepG2 cells assessed as inhibition of clone formation pretreated for 48 hrs followed by replacement with drug free medium every 3 days for 10 days by crystalline violet staining based assay; type: functional, cell-based; conditions: dose 0.5-2 µM, DDE = dose-dependent effect
[9] = test system: HepG2; experiment: Induction of ferroptosis in human HepG2 cells assessed as downregulation of GPX4 mRNA expression by measuring fragments per kilo base of exon per million mapped fragments by qRT-PCR analysis (reference value: 298.18 to 302.30); type: functional
[10] = Upregulation of Cyclin E1 mRNA expression in human HepG2 cells assessed as fragments per kilo base of exon per million mapped fragments […] (reference value: 11.43 to 14.86); type: functional
[11] = test system: HepG2; experiment: Downregulation of Cyclin A2 mRNA expression in human HepG2 cells at 0.5 to 2.0 uM by RT-qPCR analysis; type: functional, cell-based; conditions: dose 0.5-2 µM, time 6-36 hrs, TDE = time-dependent effect
[12] = test system: HepG2; experiment: Induction of ferroptosis in human HepG2 cells assessed as increased in Fe2+ level incubated for 36 hrs; type: functional, cell-based; conditions: dose 0.5-2 µM, DDE = dose-dependent effect
[13] = test system: HepG2; experiment: Induction of ferroptosis in human HepG2 cells assessed as decrease in GPX4 protein expression at 2 uM measured after 6 hrs by Western blot analysis; type: functional, cell-based
[14] = test system: HepG2; experiment: Downregulation of Cyclin D1 mRNA expression in human HepG2 cells at 0.5 to 2.0 uM by RT-qPCR analysis; type: functional, cell-based; conditions: dose 0.5-2 µM, time 6-36 hrs, TDE = time-dependent effect
[15] = test system: HepG2; experiment: Inhibition of Cyclin D1 in human HepG2 cells assessed as reduction in CDK6 expression by Western blot analysis; type: cell-based; conditions: dose 0.5-2 µM, DDE = dose-dependent effect
[16] = test system: HepG2; experiment: Antiproliferative activity against human HepG2 cells at 0.125 to 0.5 uM incubated for 48 hrs; type: functional, cell-based; conditions: dose 0.125-0.5 µM
[17] = test system: PANC-1; experiment: Cytotoxicity against human PANC-1 cells assessed as reduction in cell viability by CCK-8 assay; type: functional, cell-based
[18] = test system: HepG2; experiment: Induction of ferroptosis in human HepG2 cells assessed as decrease in GPX4 mRNA expression measured after 36 hrs by qRT-PCR analysis; type: functional, cell-based; conditions: dose […], DDE = dose-dependent effect
[19] = test system: HepG2; experiment: Induction of ferroptosis in human HepG2 cells assessed as upregulation of ACSL4 mRNA expression by measuring fragments per kilo base of exon per million mapped fragments […] (reference value: 75.85 to 97.44); type: functional
[20] = test system: HepG2; experiment: Antiproliferative activity against human HepG2 cells at 0.125 to 2 uM by Edu staining based fluorescence microscopy assay; type: functional, cell-based; conditions: dose 0.125-2 µM, time 24-48 hrs, TDE = time-dependent effect
[21] = test system: HepG2; experiment: Downregulation of Cyclin D1 protein expression in human HepG2 cells measured at 2 uM by Western blot analysis; type: functional, cell-based; conditions: time 6-36 hrs, TDE = time-dependent effect
[22] = test system: HepG2; experiment: Antimigratory activity against human HepG2 cells assessed as reduction in cell migration measured after 24 hrs by crystal violet staining based transwell assay; type: functional; conditions: dose 0.125-0.5 µM, DDE = dose-dependent effect
[23] = Inhibition of Cyclin D1 in human HepG2 cells assessed as reduction in CDK4 expression by Western blot analysis; conditions: dose 0.5-2 µM, DDE = dose-dependent effect
[24] = test system: HepG2; experiment: Induction of ferroptosis in human HepG2 cells assessed as increase in intracellular ROS level incubated for 48 hrs by DCFH-DA staining based flow cytometry analysis; type: functional, cell-based; conditions: dose 0.25-1 µM, DDE = dose-dependent effect
[25] = test system: HepG2; experiment: Induction of cell cycle arrest in human HepG2 cells assessed as decrease in cells at S phase at 0.5 to 2 uM; type: functional, cell-based; conditions: dose 0.5-2 µM
[26] = test system: HepG2; experiment: Inhibition of Cyclin D1 in human HepG2 cells assessed as reduction in Rb phosphorylation by Western blot analysis; type: cell-based; conditions: dose 0.5-2 µM, DDE = dose-dependent effect
[27] = test system: HepG2; experiment: Downregulation of Cyclin D1 mRNA expression in human HepG2 cells assessed as fragments per kilo base of exon per million mapped fragments by RT-qPCR analysis (reference value: 59.65 to 61.74); type: functional
[28] = test system: HepG2; experiment: Antiproliferative activity against human HepG2 cells incubated for 24 to 48 hrs by Edu staining based fluorescence microscopy assay; type: functional, cell-based; conditions: dose 0.125-2 µM, time 24-48 hrs, DDE = dose-dependent effect
[29] = test system: HepG2; experiment: Cytotoxicity against human HepG2 cells assessed as reduction in cell viability at 5 to 100 uM relative to control; type: functional; conditions: dose 5-100 µM
[30] = test system: HepG2; experiment: Cytotoxicity against human HepG2 cells assessed as reduction in cell viability at 10 uM relative to control; type: functional
[31] = test system: HepG2; experiment: Induction of ferroptosis in human HepG2 cells assessed as increase in ACSL4 protein expression at 2 uM by Western blot analysis; type: functional, cell-based; conditions: time 6-36 hrs, TDE = time-dependent effect
[32] = test system: HepG2; experiment: Cytotoxicity against human HepG2 cells assessed as reduction in cell viability at 1.5625 uM incubated for 48 hrs by CCK-8 assay relative to control; type: functional
[33] = test system: HepG2; experiment: Induction of cell death in human HepG2 cells measured after 48 hrs by Annexin V-FITC/PI double staining based flow cytometry analysis; type: functional; conditions: dose 0.5-2 µM, DDE = dose-dependent effect
[34] = test system: HepG2; experiment: Induction of ferroptosis in human HepG2 cells assessed as increased in MDA level incubated for 36 hrs; type: functional, cell-based; conditions: dose 0.5-2 µM, DDE = dose-dependent effect
[35] = test system: HepG2; experiment: Induction of ferroptosis in human HepG2 cells assessed as log2 fold increase in ACSL4 mRNA expression by qRT-PCR analysis; type: functional
[36] = test system: HepG2; experiment: Induction of cell cycle arrest in human HepG2 cells assessed as increase in G1 phase at 0.5 to 2 uM; type: functional, cell-based; conditions: dose 0.5-2 µM
[37] = test system: HepG2; experiment: Downregulation of Cyclin E1 mRNA expression in human HepG2 cells at 0.5 to 2.0 uM by RT-qPCR analysis; type: functional, cell-based; conditions: dose 0.5-2 µM, time 6-36 hrs, TDE = time-dependent effect
[38] = test system: HepG2; experiment: Cytotoxicity against human HepG2 cells assessed as reduction in cell viability incubated for 48 hrs by CCK-8 assay; type: functional, cell-based; conditions: dose 0.78125-50 µM, DDE = dose-dependent effect
[39] = test system: HepG2; experiment: Cytotoxicity against human HepG2 cells assessed as reduction in cell viability by CCK-8 assay; type: functional, cell-based

SMILES: C=C(C)[C@@H]1CC[C@]2(C(=O)OCCCCCn3cc(CCN)c4ccccc43)CC[C@]3(C)[C@H](C[C@H]4OC(=O)C[C@@H](O)[C@]5(C)[C@@H]4[C@@]3(C)CC[C@H]5C(=C)C)[C@@H]12
- Activity [1]: Dde
- Activity [2]: Dde
- Activity [3]: Dde
- IC50 [4]: 5.34 µM
- log2FC [5]: -0.29
- Activity [6]: 30.38
- IC50 [7]: 5.44 µM
- Activity [8]: Dde
- Activity [9]: 221.77
- Activity [10]: 14.11
- Activity [11]: Tde
- Activity [12]: Dde
- Activity [13]: Active
- Activity [14]: Tde
- inhibition [15]: Dde
- Activity [16]: Active
- IC50 [17]: 5.5 µM
- Activity [18]: Dde
- Activity [19]: 132.19
- Activity [20]: Tde
- Activity [21]: Tde
- Activity [22]: Dde
- inhibition [23]: Dde
- Activity [24]: Dde
- Activity [25]: Active
- inhibition [26]: Dde
- Activity [27]: 53.4
- Activity [28]: Dde
- Activity [29]: 10.55%
- Activity [30]: 20.15%
- Activity [31]: Tde
- inhibition at 1.562 µM [32]: 95.1%
- Activity [33]: Dde
- Activity [34]: Dde
- log2FC [35]: 0.83
- Activity [36]: Active
- Activity [37]: Tde
- Activity [38]: Dde
- IC50 [39]: 970 nM
